Experimental data reported in patent EP3409671B1, “ISOTHIAZOLE DERIVATIVES AS GPR120 AGONISTS FOR THE TREATMENT OF TYPE II DIABETES” (Janssen Pharmaceutica NV, priority 2014, dated 2015).

How the values were obtained:
C57b1/6J Mice = assay: GPR120 C57bl6 Mouse IPGTT; assay type: in vivo; design: C57 IPGTT 10mg/kg: unit not given here; details: for C57 IPGTT 3mg/kg: 3mg/kg dosed 30 minutes prior to glucose IP 1.5g/kg; for C57 IPGTT 10mg/kg: 10mg/kg dosed 30 minutes prior to glucose IP 1.5g/kg
Experimental: Male, C57b1/6J Mice were ordered in at 8 weeks of age from Jackson Labs. Individual mice weighed anywhere in the range of 25-30 grams on study day. The mice were fasted, with removal of food occurring at 7am on the morning of the study. Animals were moved into the room at 10:00am, to give them time to acclimate. Glucose (insulin syringes) was drawn up either the night before or the morning of the study. Glucose was dosed (IP) at 1.5g/kg at 7.5ml/kg (20% glucose straight TEKNOVA, 250ml sterile bottle w/ catalogue number G0525). Test compounds were kept spinning and were only drawn into the syringes prior to study commencement. Animals were bled via tail snip to determine basal glucose levels prior to dosing of treatments. An Ascensia BREEZE Blood Glucose Monitoring System by Bayer (using unique 10-test disks) was used for determining glucose levels. The bleeds started at approximately 12:45pm and dosing started, at 1-minute intervals, immediately after. All groups were dosed 30 minutes prior to glucose administration at a dose volume of 10ml/kg (the dose volume was calculated separately for each individual animal). Thirty minutes after the first dose animals were bled again for a second baseline, or T=0, and immediately dosed with glucose via an i.p. injection. The exact dose volume for glucose was also calculated separately for each individual animal. Glucose measurements were taken at -30min prior to compound dose, at t=0 (immediately prior to glucose dose), and at 15, 30, 45, 60, 90min post glucose dose.
Glucose values were entered into an Excel sheet and graphed in GraphPad Prism. The following were calculated from Prism: Change from -30 to 0 BSLN Glucose, Raw Glucose AUC -30 to 90min, Delta Glucose AUC -30 to 90min, Raw Glucose AUC 0 to 90min, Delta Glucose AUC 0 to 90min.
Representative compounds of the present disclosure were tested according to the procedures as described in Biological Example 4, above with results as listed in Table 3, below. […] Where a compound was tested more than once, each result is listed individually. Table 3: GPR120 C57bl6 Mouse IPGTT OGTT Results

Human GPR120 short form [1] = biological target: T1, Human GPR120 short form (Homo sapiens, UniProt Q5NUL3); assay: Human GPR120 Calcium Flux Assay, Procedure Calcium A; assay type: cell-based; details: HEK-293 cells expressing Human GPR120 short form, FLIPR, 2500 cells / well; read-out: GPR120 Ca^2+ Assay A EC50
T1 construct: expressed in transfected cells
T1 sequence (Q5NUL3 1-361): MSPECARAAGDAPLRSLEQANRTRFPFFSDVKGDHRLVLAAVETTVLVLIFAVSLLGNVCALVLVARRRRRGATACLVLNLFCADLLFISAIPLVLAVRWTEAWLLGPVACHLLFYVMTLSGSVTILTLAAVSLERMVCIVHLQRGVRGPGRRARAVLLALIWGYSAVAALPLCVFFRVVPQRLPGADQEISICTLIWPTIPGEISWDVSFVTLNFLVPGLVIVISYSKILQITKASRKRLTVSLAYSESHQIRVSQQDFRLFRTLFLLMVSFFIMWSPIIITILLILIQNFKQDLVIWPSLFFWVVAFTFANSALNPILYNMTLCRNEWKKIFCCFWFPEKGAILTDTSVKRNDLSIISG
Description: (§1) This in vitro assay serves to assess test compound agonist activity against the short splice variant (SVS with Accession number NM_001195755.1 confirmed by sequencing data) of the GPR120 receptor. The Human Short splice variant #2 (NM_001195755.1) is missing an in-frame coding exon compared to variant 1 (the Human Long splice variant NM_181745.3), resulting in a shorter isoform (GPR120-S) lacking a 16 aa protein segment compared to isoform GPR120-L. The assay platform utilizes HEK-293 cells stably transfected to express the Human GPR120 short form. These cells are first loaded with the Ca^+2 sensitive dye, Fluo-4 NW. Upon stimulation, intracellular released Ca^+2 can bind to the dye and alter its fluorescence intensity. This increase in fluorescence signal, and thus the flux in intracellular [Ca^2+], is detected and quantitated by fluorescence imaging using a FLIPR reader. The effect of the agonist is measured as a function of concentration and used to calculate an EC50 based upon a response curve.
In this procedure 2500 cells / well were employed.
(§2) A Human GPR120 clone (Genbank accession number NM _001195755.1) was placed into the pcDNA3.1 mammalian expression vector carrying the neomycin resistance gene. A stable mammalian cell was generated by placing the above clone into a HEK293 background. Clonal cells responding to long chain fatty acids had expression levels of GPR120 confirmed by RT-qPCR. Human HEK-GPR120 cells were cultured in Dulbecco's Modified Eagle's Medium (DMEM)/F12 medium supplemented with 10% fetal bovine serum (FBS), 1% L-Glutamine and 1% penicillin/streptomycin and 0.5 mg/ml G-418. Cells were split 2 times a week to keep the cells in the log-phase growth.
(§3) In preparation for the assay, HEK cells stably transfected with Human GPR120 (2.5K cells per well in 25uL growth medium) were seeded into 384-well plates and then incubated overnight (37°C, 5% CO2). The next day, the media was changed to 20 µL assay buffer and the cell starved for 1h at 37°C. […]
(§4) The assay was performed on a FLIPR plate reader using the following parameters. Baseline was read for 10 seconds at 1 sec intervals. The program was set to transfer 10µL of ligand from compound plate to cell plate after baseline reading. […] After compound addition, each well was read for 300 sec, with measurements collected at 1 sec intervals.
(§5) The kinetic data from the FLIPR was based upon a 5 minute window for data collection. The fluorescence of each sample well was used for individual calculations of a normalized RFU value, which was defined as maximum response minus the minimum response. The normalized fluorescence reading (RFU) was calculated as follows: RFU = Fmax−Fmin [formula] […]

Human GPR120 short form [2] = biological target: T1, Human GPR120 short form; assay: Human GPR120 Calcium Flux Assay, Procedure Calcium B; assay type: cell-based; details: HEK-293 cells expressing Human GPR120 short form, FLIPR, 4200 cells/well; read-out: GPR120 Ca^2+ Assay B EC50
Description: as §1
In this procedure 4200 cells/well were employed.
as §2, §3, §4, §5

| Compound | C57 IPGTT 3mg/kg (C57b1/6J Mice) | C57 IPGTT 10mg/kg (C57b1/6J Mice) | further results |
| --- | --- | --- | --- |
| CCc1ccc(-c2nsc(C(F)(F)F)c2COc2c(F)cc(CCC(=O)O)cc2F)cc1 [Cpd 70, 3-(4-[[3-(4-ethylphenyl)-5-(trifluoromethyl)-1,2-thiazol-4-yl]methoxy]-3,5-difluorophenyl)propanoic acid] | – | – | C57 IPGTT 30mg/kg (C57b1/6J Mice; 30mg/kg dosed 30 minutes prior to glucose IP 1.5g/kg): -88 |
| O=C(O)CCc1cc(F)c(OCc2c(C3CCCC3)nsc2C(F)(F)F)c(F)c1 [Cpd 71, 3-(4-[[3-cyclopentyl-5-(trifluoromethyl)-1,2-thiazol-4-yl]methoxy]-3,5-difluorophenyl)propanoic acid] | -14 | – | – |
| O=C(O)CCc1cc(F)c(OCc2c(-c3ccc(Cl)cc3)nsc2C(F)(F)F)c(F)c1 [Cpd 79, 3-(4-[[3-(4-chlorophenyl)-5-(trifluoromethyl)-1,2-thiazol-4-yl]methoxy]-3,5-difluorophenyl)propanoic acid] | – | -60 | – |
| CCc1ccc(-c2snc(Cl)c2COc2ccc(CCC(=O)O)c(C)c2C)cc1 [Cpd 85, 3-(4-[[3-chloro-5-(4-ethylphenyl)-1,2-thiazol-4-yl]methoxy]-2,3-dimethylphenyl)propanoic acid] | -29 | -48 | – |
| OCCCc1cc(F)c(OCc2c(-c3ccc(Cl)cc3)nsc2C(F)(F)F)c(F)c1 [Cpd 100, 3-(4-[[3-(4-chlorophenyl)-5-(trifluoromethyl)-1,2-thiazol-4-yl]methoxy]-3,5-difluorophenyl)propan-1-ol] | – | -42 | – |
| O=C(O)CCc1ccc(OCc2c(-c3ccc(Cl)cc3)nsc2C(F)(F)F)c(F)c1F [Cpd 106, 3-(4-[[3-(4-chlorophenyl)-5-(trifluoromethyl)-1,2-thiazol-4-yl]methoxy]-2,3-difluorophenyl)propanoic acid] | – | -34 | – |
| O=C(O)CCc1cc(F)c(OCc2c(-c3ccc(F)c(F)c3)nsc2C(F)(F)F)c(F)c1 [Cpd 129, 3-(4-((3-(3,4-difluorophenyl)-5-(trifluoromethyl)isothiazol-4-yl)methoxy)-3,5-difluorophenyl)propanoic acid] | – | – | EC50 (Human GPR120 short form [1]): 125 nM |
| Cc1c(CCC(=O)O)ccc(OCc2c(-c3ccc(Cl)cc3)nsc2C(F)(F)F)c1C [Cpd 142, 3-(4-((3-(4-chlorophenyl)-5-(trifluoromethyl)isothiazol-4-yl)methoxy)-2,3-dimethylphenyl)propanoic acid] | -34 | -61 | – |
| Cc1ccccc1-c1snc(Cl)c1COc1cc(C(F)(F)F)c(CCC(=O)O)cc1F [Cpd 246, 3-(4-((3-chloro-5-(o-tolyl)isothiazol4-yl)methoxy)-5-fluoro-2-(trifluoromethyl)phenyl)propanoic acid] | – | – | EC50 (Human GPR120 short form [1]): 2350 nM |
| COC(=O)CCc1cc(F)c(OCc2c(-c3ccc(Cl)cc3F)nsc2C(F)(F)F)c(F)c1 [Cpd 263, Methyl 3-(4-{[3-(4-chloro-2-fluorophenyl)-5-(trifluoromethyl)isothiazol-4-yl]methoxy}-3,5-difluorophenyl)propanoate] | – | – | EC50 (Human GPR120 short form [2]): > 5000 nM |
